Values of other authors, collected in patent publication US20200353179A1, “Device for Deterring Abuse of Drugs” (EIGHTY EIGHT PHARMA, INC., priority 2017, published 2020).
Counter-ions that a name gives are not always drawn. Like-named read-outs stand apart in the source and are kept apart here.

How the values were obtained:
[1] = 800 mg daily for up to one week
[2] = test system: pharmacologic effects of intravenously administered heroin

In the case of `O=C1CC[C@@]2(O)[C@H]3Cc4ccc(O)c5c4[C@@]2(CCN3CC2CC2)[C@H]1O5` [naltrexone hydrochloride], the “toxicity in human subjects” value [1] is listed as “no evidence of toxicity”, the “signs produced by high doses” value (animals; high doses, generally >1,000 mg/kg) is listed as “salivation, depression/reduced activity, tremors, and convulsions” and the “cause of mortalities in animals” value (animals; high-dose naltrexone administration) is listed as “tonic-clonic convulsions and/or respiratory failure”. The “duration of blockade of pharmacologic effects of heroin” value ([2]; 50 mg naltrexone hydrochloride, 25 mg intravenously administered heroin) was ≤ 24 hours, the duration of blockade ([2]; doubling the dose of naltrexone hydrochloride) was 48 h and the “effect on the subjective effects of intravenously administered opioids” value ([2]; intravenously administered opioids) was “markedly attenuates or completely blocks, reversibly”. The duration of blockade ([2]; tripling the dose of naltrexone hydrochloride) was “about 72 hours”.
